Molecules are shown by their SMILES. Bounds are passed on as bounds.

The subject of the first assay is HCT116 cells. Put plainly: Cell viability assay (CellTiter-Glo, 72 hours) in HCT116 human colorectal cancer cells. The class given is cell-based. Particulars: Homo sapiens, HCT-116; Table 5; HCT116, 72 hours; read-out: Activity. An outline of the steps: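 Ten-point IC50 came from an asymmetric five-parameter fit of luminescence corrected to vehicle wells. ATP content was measured by CellTiter-Glo 72 h after dosing at 37 °C. Cells were seeded at 2,000/well the day before, with 0.5% DMSO in all wells.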
In general terms: In ATP-based viability assays light output follows the ATP content of the culture.
Consider `CC#CCN1C(=O)c2ccccc2Sc2cc(Nc3ncnc(Cl)n3)ccc21` [10-(But-2-yn-1-yl)-7-((4-chloro-1,3,5-triazin-2-yl)amino)dibenzo[b,f][1,4]thiazepin-11 (10H)-one], for which the IC50 lay in the range of 1000 to 5000 nM.
For `CC#CCN1C(=O)c2ccc(C#N)cc2Sc2cc(Nc3nc(C)cnc3C)ccc21` [10-(But-2-yn-1-yl)-7-((3,6-dimethylpyrazin-2-yl)amino)-11-oxo-10,11-dihydrodibenzo[b,f][1,4]thiazepine-3-carbonitrile], the IC50 was less than 500 nM.
Same read-out and setting: as for `CC#CCN1C(=O)c2ccccc2Sc2cc(Nc3ncnc(C#N)n3)ccc21` [4-((10-(But-2-yn-1-yl)-11-oxo-10,11-dihydrodibenzo[b,f][1,4]thiazepin-7-yl)amino)-1,3,5-triazine-2-carbonitrile], the figure is 1000 to 5000 nM; as for `CC#CCN1C(=O)c2ccccc2Sc2cc(Nc3nnc(C#N)cc3C)ccc21` [6-((10-(But-2-yn-1-yl)-11-oxo-10,11-dihydrodibenzo[b,f][1,4]thiazepin-7-yl)amino)-5-methylpyridazine-3-carbonitrile], less than 500 nM.
In the case of `CCC/C=C/CN1C(=O)c2ccccc2Sc2cc(Nc3ccccn3)ccc21` [(E)-10-(Hex-2-en-1-yl)-7-(pyridin-2-ylamino)dibenzo[b,f][1,4]thiazepin-11 (10H)-one], the IC50 is 500 to 1000 nM.
Regarding `CC#CCN1C(=O)c2ccccc2Sc2cc(Nc3ncc(C#N)cc3C)ccc21` [6-((10-(But-2-yn-1-yl)-11-oxo-10,11-dihydrodibenzo[b,f][1,4]thiazepin-7-yl)amino)-5-methylnicotinonitrile], the IC50 was less than 500 nM.

Staying with this assay, now noted: Table 2; HCT116, 72 hours; read-out: Activity.
On to `CC#CCN1C(=O)c2ccc(Cl)cc2Sc2cc(NC(=S)N3CCC3)ccc21`, for which the IC50 is less than 500 nM.
`CC#CCN1C(=O)c2ccccc2Sc2cc(NC(=S)N3CCCCC3)cnc21` [Table 2: —CH2CCMe; piperidin-1-yl; CH; N]: the IC50 is less than 500 nM.

Still in this assay, the particulars now being: Table 3; HCT116, 72 hours; read-out: Activity.
Take `CC#CCN1C(=O)c2ccccc2Sc2cc(NC(=O)Nc3cccc(OC)c3)ccc21` [Table 3: —CH2CCMe; 3-MeOPh; CH/CH]: the IC50 was less than 500 nM.
Consider `CC#CCN1C(=O)c2ccccc2Sc2cc(NC(=O)Nc3ccc4oc(=O)n(C)c4c3)cnc21`, for which the IC50 was less than 500 nM.
Same read-out and setting: as for `CC#CCN1C(=O)c2ccccc2Sc2cc(NC(=O)N[C@H]3C[C@@H](O)C3)cnc21` [Table 3: —CH2CCMe; cis-3-OH-cBu; CH/N], the figure is less than 500 nM.

The assay is the same for the next values; noted with them: Table 4; HCT116, 72 hours; read-out: Activity.
For the compound `CC#CCN1C(=O)c2ccccc2Sc2cc(NC(=S)Nc3ccc(OC)cc3)ccc21` [Table 4: —CH2CCMe; 4-MeOPh; CH], the IC50 was less than 500 nM.
For the compound `CC#CCN1C(=O)c2ccccc2Sc2cc(NC(=S)NC3COC3)cnc21` [Table 4: —CH2CCMe; oxetan-3-yl; N], the IC50 is less than 500 nM.
On the same count and under the same terms, as for `CC#CCN1C(=O)c2ccccc2Sc2cc(NC(=S)N[C@H]3C[C@H](O)C3)ccc21` [Table 4: —CH2CCMe; trans-3-OH-cBu; CH], the figure is less than 500 nM.

Staying with this assay, now noted: Table 5; HCT116, 72 hours; read-out: Activity.
Turning to `CC=CCN1C(=O)c2ccccc2Sc2cc(Nc3ncccc3C)cnc21`, the IC50 is less than 500 nM.
On the same count and under the same terms, as for `CC#CCN1C(=O)c2ccccc2Sc2cc(Nc3ncnc(C#N)c3C)cnc21`, the figure is less than 500 nM.

The same assay, now with this note: Table 6; HCT116, 72 hours; read-out: Activity.
As to `COCC1CC(Nc2cnc3c(c2)Sc2ccccc2C(=O)N3CC#CCl)C1` (stereo not drawn) [Table 6: —CH2CCCl; 3-MeOCH2-cBu; CH/N; S], the IC50 was less than 500 nM.
As to `O=C1c2ccccc2Sc2cc(NC3CC(O)C3)ccc2N1CC#CCl` (stereo not drawn) [Table 6: —CH2CCCl; 3-HOcBu; CH/CH; S], the IC50 is less than 500 nM.
Still for that read-out and setting: as for `C#CCN1C(=O)c2ccccc2Sc2cc(NC3CC(OC)C3)cnc21` (stereo not drawn) [Table 6: —CH2CCH; 3-MeOcBu; CH/N; S], the figure is less than 500 nM; as for `CC#CCN1C(=O)c2ccccc2Sc2cc(NC3CC4(CC(O)C4)C3)ccc21` (stereo not drawn), less than 500 nM.
Take `CC#CCN1C(=O)c2ccccc2Cc2cc(NCCCO)ccc21` [Table 6: —CH2CCMe; (CH2)3 OH; CH/CH; CH2]: the IC50 is less than 500 nM.
The same measure, in the same setting: as for `CC#CCN1C(=O)c2ccccc2Sc2cc(NC3CC4(CC(=O)C4)C3)cnc21`, the figure is less than 500 nM.

Staying with this assay, now noted: Table 7; cell viability assay, CellTiter-Glo, 72 hours; scaffold drawing 42 with R^2, R^3, X/Y, Z; read-out: Activity.
Regarding `C#CCOCCN1C(=O)c2ccccc2Cc2cc(NC(=O)c3ccc(OC)cc3)ccc21` [—(CH2)2OCH2CCH; 4-MeOPh; CH/CH; CH2], the IC50 is less than 500 nM.

The assay is the same for the next values; noted with them: Table 8; analogs of scaffold drawing 43 defined by R^2, R^3, X/Y, W; read-out: Activity (IC50 class, cell viability assay).
For the compound `CON=C1CC2(C1)CC(C(=O)Nc1cnc3c(c1)Sc1ccccc1C(=O)N3CC#CCl)C2` (stereo not drawn), the IC50 was less than 500 nM.
Still for that read-out and setting: as for `CC#CCN1C(=O)c2ccc(Cl)cc2Sc2cc(NC(=O)C3CC4(CC(O)C4)C3)ccc21` (stereo not drawn), the figure is less than 500 nM.
The same measure, in the same setting: as for `CC#CCN1C(=O)c2ccc(F)cc2Sc2cc(NC(=O)C3CC4(CC(=NO)C4)C3)ccc21` (stereo not drawn), the figure is less than 500 nM.
Still for that read-out and setting: as for `CC#CCN1C(=O)c2cc(F)ccc2Sc2cc(NC(=O)[C@H]3C[C@H](O)C3)ccc21` [—CH2CCMe; trans-3-OH-cBu; CH/CF; CH], the figure is less than 500 nM.
Consider `CC#CCN1C(=O)c2ccccc2Sc2cc(NC(=O)C34CC(C3)C4)cnc21`, for which the IC50 is less than 500 nM.
The same measure, in the same setting: as for `COC12CC(C(=O)Nc3cnc4c(c3)Sc3ccc(F)cc3C(=O)N4CC#CC3CC3)(C1)C2`, the figure is less than 500 nM.
On the same count and under the same terms, as for `CO[C@H]1C[C@H](C(=O)Nc2ccc3c(c2)Sc2cc(Cl)ccc2C(=O)N3CC#CCl)C1` [—CH2CCCl; trans-3-MeOcBu; CCI/CH; CH], the figure is less than 500 nM; as for `COCC1CC(C(=O)Nc2cnc3c(c2)Sc2ccccc2C(=O)N3CC#CC2CC2)C1` (stereo not drawn) [—CH2CC^cPr; 3-MeOCH2-cBu; CH/CH; N], less than 500 nM.
The same measure, in the same setting: as for `CC#CCN1C(=O)c2ccccc2Sc2cc(NC(=O)C34CC(C)(C3)C4)ccc21`, the figure is less than 500 nM; as for `N#CC12CC(C(=O)Nc3cnc4c(c3)Sc3ccccc3C(=O)N4CC#CC3CC3)(C1)C2`, less than 500 nM.
As for `CC#CCN1C(=O)c2ccccc2Sc2cc(NC(=O)[C@@H]3C[C@H]3C(=O)OC)ccc21` (relative stereo) [—CH2CCMe; trans-2-MeO2C-cPr; CH/CH; CH], the IC50 is less than 500 nM.
On the same count and under the same terms, as for `CC#CCN1C(=O)c2ccc(Cl)cc2Sc2cc(NC(=O)[C@H]3C[C@@H](OC)C3)ccc21` [—CH2CCMe; cis-3-MeOcBu; CCI/CH; CH], the figure is less than 500 nM; as for `CC#CCN1C(=O)c2cc(F)ccc2Sc2cc(NC(=O)CCCO)ccc21` [—CH2CCMe; (CH2)3OH; CH/CF; CH], less than 500 nM; as for `CC#CCN1C(=O)c2ccccc2Sc2cc(NC(=O)C3CC3)cnc21` [—CH2CCMe; cPr; CH/CH; N], less than 500 nM.
The same measure, in the same setting: as for `CC#CCN1C(=O)c2cc(F)ccc2Sc2cc(NC(=O)C3CC3C(=O)OC)ccc21` (racemic) [—CH2CCMe; trans-2-MeO2C-cPr; CH/CF; CH], the figure is less than 500 nM; as for `COCC1CC(C(=O)Nc2cnc3c(c2)Sc2ccccc2C(=O)N3CC#CC(F)(F)F)C1` (stereo not drawn) [—CH2CCCF3; 3-MeOCH2-cBu; CH/CH; N], less than 500 nM; as for `CC#CCN1C(=O)c2ccccc2Sc2cc(NC(=O)C(C)CCOC)cnc21` (stereo not drawn) [—CH2CCMe; MeO(CH2)2CHMe-; CH/CH; N], less than 500 nM.
Consider `O=C1c2ccccc2Sc2cc(NC(=O)C34CC(F)(C3)C4)cnc2N1CC#CC1CC1`, for which the IC50 was less than 500 nM.
The same measure, in the same setting: as for `CC#CCN1C(=O)c2cc(F)ccc2Sc2cc(NC(=O)[C@H]3C[C@H](OC)C3)cnc21` [—CH2CCMe; trans-3-MeOcBu; CH/CF; N], the figure is less than 500 nM.
The same measure, in the same setting: as for `CC#CCN1C(=O)c2ccc(Cl)cc2Sc2cc(NC(=O)[C@H]3C[C@@H]3COC)ccc21` (relative stereo) [—CH2CCMe; trans-2-MeOCH2-cPr; CCl/CH; CH], the figure is less than 500 nM.
On the same count and under the same terms, as for `CC#CCN1C(=O)c2ccccc2Sc2cc(NC(=O)C3CCN(C)C3)ccc21` (stereo not drawn), the figure is 1000 to 5000 nM; as for `CC#CCN1C(=O)c2ccccc2Sc2cc(NC(=O)C=CCOC)ccc21` [—CH2CCMe; CH═CHCH2OMe; CH/CH; CH], less than 500 nM; as for `CC#CCN1C(=O)c2ccccc2Sc2cc(NC(=O)CCC#N)ccc21` [—CH2CCMe; (CH2)2CN; CH/CH; CH], less than 500 nM.
As to `O=C(C=CCO)Nc1cnc2c(c1)Sc1ccccc1C(=O)N2CC#CC(F)(F)F` [—CH2CCCF3; CH—═CHCH2OH; CH/CH; N], the IC50 is less than 500 nM.
On the same count and under the same terms, as for `CC#CCN1C(=O)c2cc(F)ccc2Sc2cc(NC(=O)C=CCO)cnc21` [—CH2CCMe; CH═CHCH2OH; CH/CF; N], the figure is less than 500 nM.

Still in this assay, the particulars now being: Table 9; HCT116, 72 hours; read-out: Activity.
As for `CO[C@H]1C[C@H](C(=O)Nc2ccc3c(c2)C(C)(O)c2ccccc2C(=O)N3CC#CCl)C1` (stereo partly drawn) [Table 9: —CH2CCCl; trans-3-MeOcBu; CMeOH], the IC50 was less than 500 nM.
Still for that read-out and setting: as for `CC#CCN1C(=O)c2ccccc2C(C)(O)c2cc(NC(=O)[C@H]3C[C@H](OC)C3)ccc21` (stereo partly drawn) [Table 9: —CH2CCMe; trans-3-MeOcBu; CMeOH], the figure is less than 500 nM.
Regarding `CC#CCN1C(=O)c2ccccc2C(C)c2cc(NC(=O)[C@H]3C[C@@H](O)C3)ccc21` (stereo partly drawn) [Table 9: —CH2CCMe; cis-3-OH-cBu; CHMe], the IC50 was less than 500 nM.
The same measure, in the same setting: as for `CC#CCN1C(=O)c2ccccc2Cc2cc(NC(=O)CC3COC3)ccc21` [Table 9: —CH2CCMe; (oxetan-3-yl)CH2; CH2], the figure is less than 500 nM; as for `CC#CCN1C(=O)c2ccccc2C(C)(O)c2cc(NC(=O)C3CC(COC)C3)ccc21` (stereo not drawn) [Table 9: —CH2CCMe; 3-MeOCH2-cBu; CMeOH], less than 500 nM; as for `CC#CCN1C(=O)c2ccccc2C(C)c2cc(NC(=O)[C@H]3C[C@H](O)C3)ccc21` (stereo partly drawn) [Table 9: —CH2CCMe; trans-3-OH-cBu; CHMe], less than 500 nM.
With `COC12CC(C(=O)Nc3ccc4c(c3)C(C#N)c3ccccc3C(=O)N4CC#CCF)(C1)C2` (stereo not drawn), the IC50 is less than 500 nM.
The same measure, in the same setting: as for `CO[C@H]1C[C@H](C(=O)Nc2ccc3c(c2)C(C)(O)c2ccccc2C(=O)N3CC#CC2CC2)C1` (stereo partly drawn), the figure is less than 500 nM; as for `CC#CCN1C(=O)c2ccccc2C(C)c2cc(NC(=O)C=CCO)ccc21` (stereo not drawn) [Table 9: —CH2CCMe; CH═CHCH2OH; CHMe], less than 500 nM.

The values above are taken from patent publication US20260097047A1, “Small molecule inhibitors of the ribosome biogenesis factor NVL2” (Board of Regents, The University of Texas System, priority 2023, published 2026).
